Reference: paper PMC12514245, “Impaired migration and lung invasion of human melanoma by a novel small molecule targeting the transmembrane domain of death receptor p75^NTR” (EMBO Molecular Medicine, 2025)
Where “and” joins values, the source holds several entries; their conditions need not be identical. Equal values may be shown once. Entries after “also recorded” stand apart in the source; their conditions may differ.

Assays:
p75^NTR TMD = biological target: T1, p75^NTR TMD (Homo sapiens, UniProt P08138); test: AraTM assay, wild-type p75NTR TMD (GFP/OD630); assay type: cell-based
T1 sequence (P08138 250-275 limits assumed): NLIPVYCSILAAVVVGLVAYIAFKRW

p75^NTR TMD I252A = biological target: T2, p75^NTR TMD I252A (Homo sapiens, UniProt P08138, I252A); test: AraTM assay, I252A mutant p75NTR TMD; assay type: cell-based; conditions: for GFP/OD630, Mean / GFP/OD630, individual replicates: I252A
T2 construct: Comparison of wild-type (WT) p75^NTR TMD and I252A, P253G and V254A mutants in the AraTM assay; expressed in transfected cells; host or cells: E. coli AS19 (LPS-negative)
T2 sequence (P08138 250-275 I252A): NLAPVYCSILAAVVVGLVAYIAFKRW

A875 NT cells = test: Boyden chamber chemotaxis/invasion assay, A875 NT; assay type: cell-based, human; conditions: for Fold change - invading cells, Mean / Fold change - invading cells, individual replicates: 1μM
Description: For Boyden chamber assay, Corning® BioCoat™ Matrigel® Invasion Chambers 8.0 µm PET Membrane were used (cat. no. 354480). A875 NT or WM115 cells were serum-starved for 16 h and then seeded at 60,000 cells per well in serum-free media under different conditions, including DMSO (vehicle) or small molecules Div17E5 or Np75-4A22 at different concentrations to the top chamber of the Matrigel-coated trans-well chamber. The pan-caspase inhibitor Q_VD_poH (at 5 µM) was also introduced in the top chamber in some experiments. Two different chemoattractants, NGF (at 50 ng/ml or 100 ng/ml as indicated) or 10% FBS were added to the bottom chamber. Assays were carried out for 8 h after which filters were fixed in 4% PFA and stained with DAPI. Cells that had remained on the top of the filter were gently scrapped away with a cotton tip. The filter lower side was imaged on an inverted fluorescence microscope and counted using ImageJ software (NIH).

[1] = wt, compound 10 μM, Figure 5C-E
[2] = wt, compound 20 μM, Figure 5C-E
[3] = wt, compound 30 μM, Figure 5C-E
[4] = wt, compound 40 μM, Figure 5C-E

Cc1cccc(-c2cncc(Nc3ccc(Br)c(Cl)c3Cl)n2)c1C [Np75-4A22]
IC50 in the AraTM assay, compared with Div17E5 (p75^NTR TMD): improved IC50 compared to Div17E5 | GFP/OD630, Mean (p75^NTR TMD; compound 2 μM, Figure 5B): 0.98 | GFP/OD630, individual replicates (p75^NTR TMD; compound 2 μM, Figure 5B): 0.97 and 0.96 and 1.01 | GFP/OD630, Mean (p75^NTR TMD; compound 4 μM, Figure 5B): 0.58 | GFP/OD630, individual replicates (p75^NTR TMD; compound 4 μM, Figure 5B): 0.59 and 0.58 and 0.56 | GFP/OD630, Mean (p75^NTR TMD; compound 6 μM, Figure 5B): 0.46 | GFP/OD630, individual replicates (p75^NTR TMD; compound 6 μM, Figure 5B): 0.46 and 0.49 and 0.42 | GFP/OD630, Mean (p75^NTR TMD; compound 8 μM, Figure 5B): 0.41 | GFP/OD630, individual replicates (p75^NTR TMD; compound 8 μM, Figure 5B): 0.41 and 0.43 and 0.37 | GFP/OD630, Mean (p75^NTR TMD; compound 10 μM, Figure 5B): 0.39 | GFP/OD630, individual replicates (p75^NTR TMD; compound 10 μM, Figure 5B): 0.36 and 0.38 and 0.43 | activity in the AraTM assay (p75^NTR TMD; structure-activity comparison): better performance at low micromolar concentrations; also recorded: best compounds; also recorded: best compound in the 4A series | GFP/OD630, Mean (p75^NTR TMD; wt, compound 5 μM, Figure 5C-E): 0.78 | GFP/OD630, individual replicates (p75^NTR TMD; wt, compound 5 μM, Figure 5C-E): 0.78 and 0.81 and 0.74 | GFP/OD630, Mean (p75^NTR TMD; [1]): 0.57 | GFP/OD630, individual replicates (p75^NTR TMD; [1]): 0.53 and 0.48 and 0.68 | GFP/OD630, Mean (p75^NTR TMD; [2]): 0.49 | GFP/OD630, individual replicates (p75^NTR TMD; [2]): 0.48 and 0.44 and 0.56 | GFP/OD630, Mean (p75^NTR TMD; [3]): 0.34 | GFP/OD630, individual replicates (p75^NTR TMD; [3]): 0.46 and 0.29 and 0.27 | GFP/OD630, Mean (p75^NTR TMD; [4]): 0.32 | GFP/OD630, individual replicates (p75^NTR TMD; [4]): 0.31 and 0.34 and 0.30 | effect of Ile252 mutation on compound activity in AraTM assay (p75^NTR TMD I252A): affected | GFP/OD630, Mean (p75^NTR TMD I252A; compound 5 μM): 0.99 | GFP/OD630, individual replicates (p75^NTR TMD I252A; compound 5 μM): 0.93 and 1.08 and 0.97 | GFP/OD630, Mean (p75^NTR TMD I252A; compound 10 μM): 0.85 | GFP/OD630, individual replicates (p75^NTR TMD I252A; compound 10 μM): 0.76 and 0.91 and 0.89 | GFP/OD630, Mean (p75^NTR TMD I252A; compound 20 μM): 0.84 | GFP/OD630, individual replicates (p75^NTR TMD I252A; compound 20 μM): 1.01 and 0.83 and 0.69 | GFP/OD630, Mean (p75^NTR TMD I252A; compound 30 μM): 0.73 | GFP/OD630, individual replicates (p75^NTR TMD I252A; compound 30 μM): 0.91 and 0.67 and 0.61 | GFP/OD630, Mean (p75^NTR TMD I252A; compound 40 μM): 0.72 | GFP/OD630, individual replicates (p75^NTR TMD I252A; compound 40 μM): 0.77 and 0.62 and 0.76 | INVADING CELLS Average (A875 NT cells; 0.5μM, NGF (50 ng/ml)): 217.00 | INVADING CELLS Fold Average (A875 NT cells; 0.5μM, NGF (50 ng/ml)): 1.60 Fold | INVADING CELLS Fold change (A875 NT cells; 0.5μM, NGF (50 ng/ml)): 1.65 Fold and 1.68 Fold and 1.46 Fold | INVADING CELLS count (A875 NT cells; 0.5μM, NGF (50 ng/ml)): 224 and 229 and 198 | INVADING CELLS Average (A875 NT cells; 0.5μM, No NGF): 115.33 | INVADING CELLS Fold Average (A875 NT cells; 0.5μM, No NGF): 0.85 Fold | INVADING CELLS Fold change (A875 NT cells; 0.5μM, No NGF): 0.82 Fold and 0.92 Fold and 0.80 Fold | INVADING CELLS count (A875 NT cells; 0.5μM, No NGF): 112 and 125 and 109 | INVADING CELLS Average (A875 NT cells; 0.75μM, NGF (50 ng/ml)): 161.00 | INVADING CELLS Fold Average (A875 NT cells; 0.75μM, NGF (50 ng/ml)): 1.18 Fold | INVADING CELLS Fold change (A875 NT cells; 0.75μM, NGF (50 ng/ml)): 1.31 Fold and 1.11 Fold and 1.13 Fold | INVADING CELLS count (A875 NT cells; 0.75μM, NGF (50 ng/ml)): 178 and 151 and 154 | INVADING CELLS Average (A875 NT cells; 0.75μM, No NGF): 131.00 | INVADING CELLS Fold Average (A875 NT cells; 0.75μM, No NGF): 0.96 Fold | INVADING CELLS Fold change (A875 NT cells; 0.75μM, No NGF): 0.99 Fold and 1.01 Fold and 0.90 Fold | INVADING CELLS count (A875 NT cells; 0.75μM, No NGF): 134 and 137 and 122 | Fold change - invading cells, Mean (A875 NT cells; NGF): 1.46 | Fold change - invading cells, individual replicates (A875 NT cells; NGF): 1.24 and 1.52 and 1.63 | Fold change - invading cells, Mean (A875 NT cells; no NGF): 0.96 | Fold change - invading cells, individual replicates (A875 NT cells; no NGF): 1.22 and 0.88 and 0.78 | NGF activity in Boyden chamber assay of cell chemotaxis (A875 NT cells; 1 μM, NGF 50 ng/ml): blocked all NGF activity | NGF-induced A875 chemotaxis (A875 NT cells; submicromolar concentrations, NGF 50 ng/ml): significantly reducing
